Experimental data from a melting point compilation (Tetko et al.; mined from patent text by program, amines drawn as free bases though some values may be those of a salt).

| Compound | melting point [°C] |
| --- | --- |
| COc1ccc(NCCCN)c2c1C(=O)c1ccccc1C2=O | 108 to 110 |
| CCCCC(=O)c1ccc(Cl)c(Cl)c1 | 40 to 41 |
| COc1ccc(CN2C(=O)C3(COc4cc5c(C)noc5cc43)c3ccccc32)cc1 (stereo not drawn) | 183 to 184 |
| CC(=C(c1ccc(N(C)C)cc1)c1ccc(N(C)C)cc1)P(C1CCCCC1)C1CCCCC1 | 159 to 164 |
| CCCCCCCCCNC(=O)CCC(=O)O | 114 to 116 |
| CC(C)(C(=O)C=Cc1ccc(F)cc1)C1OCCO1 | 76 |
| Fc1ccc(C(=C(c2ccccc2)c2ccc(OCCN3CCOCC3)cc2)C(F)(F)F)cc1 | 67 to 69 |
| COc1cccc(-c2nc(-c3ccccc3)c3ncc(-c4cccnc4)cc3n2)c1 | 134 to 135 |
| CCCc1nn2ncc(C(=O)OCOC(=O)C(C)(C)C)c2n1Cc1ccc(-c2ccccc2-c2nnn[nH]2)cc1 | 157 to 158 |
| CN1C(=O)C(C(=O)OCCN2CCOCC2)N=C(c2ccccc2)c2cc(Cl)ccc21 (stereo not drawn) | 162 to 166 |
| Nc1c(Cl)ccc2c1C=C(C(=O)O)C(C(F)(F)F)O2 (stereo not drawn) | 208 to 210 |
| COc1ccc(F)cc1C(C)(C)CC(O)(Cn1ncc(=O)c2ccccc21)C(F)(F)F (stereo not drawn) | 122 to 123 |
| CCOC(=O)CC(=O)c1ccc(C)nn1 | 79 |
| CCc1cc(-c2[nH]c3ccc(OC)cc3c2C)cc(CC)c1O | 122 to 124 |
| CCCCc1nc(SCC)c(CO)n1Cc1ccc(-c2ccccc2C(=O)O)cc1 | 160 |
| CC(C)C(C(=O)O)c1ccc(OC(F)F)cc1 (stereo not drawn) | 63 |
| O=C(O)c1cc(Oc2ncc(C(F)(F)F)cc2Cl)ccc1[N+](=O)[O-] | 131 |
| Cc1noc(NS(=O)(=O)c2cc(OCc3ccccc3)ccc2-c2ccc(CC(C)C)cc2)c1C | 96 to 101 |
| COc1ccc(Sc2[nH]c3cccc4c3c2CC2C4C=C(C)CN2C)cc1 (stereo not drawn) | > 250 |
| Cc1cc(OCc2ccccc2)c(C23CC4CC(CC(C4)C2)C3)cc1Br | 138 to 139 |
| COc1cccc(C(C)c2ccc(-c3cnn4c(O)ncnc34)cc2)c1 (stereo not drawn) | 282 to 285 |
| CCOC(=O)CCc1nc(-c2ccccc2)cc2ccccc12 | 60 |
| CCN(CC)C(=O)N1CCc2c([N+](=O)[O-])cc3[nH]c(=O)c(=O)[nH]c3c2C1 | > 300 |
| CCOC(=O)c1cc2cc(C3=C(c4cnc5[nH]cc(C(=O)C(C)(C)C)c5n4)CCC3)ccc2[nH]1 | 278 to 280 |
| COc1ccc(CNC(=O)c2ccccc2N)cc1 | 104 to 105 |
| O=C(O)COc1c(-c2cccc(C(F)(F)F)c2)cc(C(=O)NCCCCCCc2ccccc2)cc1-c1cccc(C(F)(F)F)c1 | 166 to 169 |

| Compound | melting point [°C] |
| --- | --- |
| CCc1nnc(CCCOc2c(C)cc(N)c(C=NO)c2C)s1 | 158 to 160 |
| CCCCCCCCC=CCCCCCCCCCCCC(=O)NC(=O)CN | 128 to 130 |
| Cc1ccccc1C1(O)C=C(C(C)(C)C)C(=O)C(C(C)(C)C)=C1 | 168 to 171 |
| COc1cc2ncnc(Oc3cccc(Cl)c3)c2cc1OC | 152 to 153 |
| Clc1ccc(CCC(Cn2ccnc2)SCc2ccco2)cc1 (stereo not drawn) | 97 to 98 |
| N#Cc1ccc(N2CCC(CCO)CC2)c2ccccc12 | 128 to 129 |
| CC1(C)CCC(C#N)(Cc2ccc(Cl)cc2)C1=O (stereo not drawn) | 101 to 103 |
| CN1CCCC1CNC(=O)c1cc(S(=O)(=O)N(C)C)cc2c1OCCO2 (stereo not drawn) | 165 to 166 |
| CCOC(=O)C1c2c([nH]c3ccccc23)C2=C(CCC2)C1C#N (stereo not drawn) | 192 to 195 |
| O=C1C=C(c2c[nH]c3ccc(Cl)cc23)C(=O)N1 | 254 to 264 |
| COc1ccc(N2CCN(c3c(C)c(C)c4c(c3C)C(NCc3ccccc3)C(C)(C)O4)CC2)cc1 (stereo not drawn) | 93 to 95 |
| COc1cc([C@H]2C(C#N)=C(N)Oc3c2ccc(NC(=O)CN(C)C(=O)OC2c4ccccc4-c4ccccc42)c3N)cc(Br)c1OC | 128 to 130 |
| COc1ccc(-c2ccc(C(C)=O)cc2)cc1 | 156 |
| CC(=O)CCCCCCCCCCCCC(C)=O | 80 |
| CCOC(=O)Cc1sc(Sc2ccnc(SC)n2)nc1C | 68 to 72 |
| C[C@H](COc1ccccc1)Nc1nc(F)nc2c1ncn2[C@@H]1O[C@H](CO)[C@@H](O)[C@H]1O | 148 to 150 |
| CCCCCCCCOc1ccc(-c2ccc(OC(F)F)cc2)cc1 | 104 |
| CC(=O)[C@@H]1C[C@H](C(=O)OC(C)(C)C)N(C(=O)CNC(=O)Nc2cccc(C)c2)[C@@H]1c1ccccc1 (racemic) | 100 |
| CC1C(=S)Nc2c(F)cc(F)cc21 (stereo not drawn) | 151 to 152 |
| CC(=O)NC[C@H]1CN(c2ccc(-c3noc(C(N)=O)n3)c(F)c2)C(=O)O1 | 218 to 220 |
| COc1cccc(Oc2c(Cl)nc(-c3cccs3)nc2NS(=O)(=O)c2ccc(C(C)(C)C)cc2)c1 | 206 to 207 |
| CCCCCc1c(C(C)O)nc(C(C)C)c(CO)c1-c1ccc(F)cc1 (stereo not drawn) | 125 to 127 |
| Cc1ccc(-c2nc(Cc3cccc(CBr)c3)c(C)o2)cc1 | 101 to 102 |
| N=C(Nc1ccccc1-c1ccc(F)cc1)N1CCC(O)CC1 | 132 to 133 |
| Cc1cnc(CN2CCNC2=C[N+](=O)[O-])cn1 | 163 to 166 |
| CCCNc1cccc2c1C(=O)c1cccc(NCCC)c1C2=O | 153 to 154 |

| Compound | melting point [°C] |
| --- | --- |
| O=C(O)C(=Cc1ccco1)SSC(=Cc1ccco1)C(=O)O | 215 |
| C#CCn1c(-c2cc(Cl)nc(Cl)c2)nc(CC)c(OC)c1=O | 112 to 115 |
| O=C(OCCc1ccccn1)Oc1ccc([N+](=O)[O-])cc1 | 125 to 127 |
| CCC(=O)Cc1ccc(C(=O)Nc2ccc3cc(CN4CCCC4)cnc3c2C)cc1 | 157 |
| CCOCc1nc2c(N)nc(C)c(C)c2n1CCOCCCc1nccs1 | 91 to 92 |
| COC(=O)C(C)Oc1ccc(Oc2ccc3ccccc3n2)cc1 (stereo not drawn) | 95 to 100 |
| COC(=O)c1cc(Br)ccc1Cl | 43 to 44 |
| c1cncc(-c2ccnc3nccn23)c1 | 162 to 164 |
| COC(=O)CC(C)(C)C(C)(C)S(=O)(=O)c1ccc(C)cc1 | 90 |
| COc1cc2c(c(C(C(N)=O)c3ccccc3)c1)CC(C)O2 (stereo not drawn) | 148 |
| CCOC(=O)Cn1cc(C(=O)O)c2nc3c(C)cccc3cc2c1=O | 277 to 280 |
| Oc1ccc2oc(-c3ccc(O)c4ccccc34)nc2c1 | 182 to 184 |
| COC(=O)CCc1c(C(C)C)cc(C(C)C)cc1C(C)C | 45 to 47 |
| CN1C(=O)C2C3C=CC(CC3)C2(c2ccc(Cl)c(Cl)c2)C1=O (stereo not drawn) | 125 to 128 |
| Cc1cc(C)c([C@H](O)[C@@H](C#N)c2ccccc2)c(C)c1 (racemic) | 132 |
| CC1(C)OC(c2ccc(S(N)(=O)=O)cc2)=C(I)C1=O | 179 to 180 |
| COc1ccc(O)c(C2(NCC(C)=O)Sc3ccccc3N(C)C2=O)c1 (stereo not drawn) | 164 to 168 |
| Cc1ccc(C)c(OCCCC(=O)O)c1 | 63 to 65 |
| c1cc2c3c(cccc3c1)C(NCCCCn1ccnc1)=N2 | 225 to 230 |
| Cc1ccc(N(Cc2ccccc2)c2ccccc2)cc1 | 85 to 86 |
| CCOC(=O)c1cnc(-c2ccccc2OCC(C)C)[nH]c1=O | 89 to 91 |
| CCOC(=O)/C(=N\O[C@H]1CCC[C@@H](C)C1)c1csc(N)n1 (relative stereo) | 91 to 93 |
| CCc1cc(NC(=O)N2CCC(C(=O)O)(c3ccccc3)CC2)c(OC)nc1C | 173 to 174 |
| O=C(CCCCCCC(=O)c1ccc(O)cc1)c1ccc(O)cc1 | 196 to 198 |
| Brc1ccc(Cn2cnc3ccccc32)cc1 | 93 to 95 |
| CN(C)C(=O)CON(Cc1ccc(F)cc1)C(=O)C=C(O)C(=O)O | 118 to 120 |

| Compound | melting point [°C] |
| --- | --- |
| CCNC(=NS(=O)(=O)c1ccc(C#N)cc1)N1CC(CC)C=N1 (stereo not drawn) | 146 to 149 |
| O=C(O)c1cccc2c1Cc1c-2[nH]c2ccc(I)cc12 | 251 |
| CC(=O)N(C#N)Cc1ccc(CN(C#N)C(C)=O)cc1 | 160 to 162 |
| COC(=O)c1ccc(-c2nc(-c3cccc(C(F)(F)F)c3)co2)cc1 | 134 to 135 |
| O=C1CCCN1C(=O)Oc1cccc(Cl)c1 | 88 to 89 |
| O=C(NC1CCC1)c1cc(Nc2nc(Cl)nc3ccoc23)[nH]n1 | 277 |
| C#CCN(C(=O)n1oc(C)c(Cl)c1=O)c1ccc(C)cc1 | 79 |
| CN(CCCNC(=O)NCCCOc1cccc(CN2CCCCC2)c1)CCN(Cc1ccc(F)cc1)c1ccccn1 | 123 to 125 |
| CN(c1cc2occc(=O)c2cc1Oc1ccccc1)S(C)(=O)=O | 187 to 189 |
| NC(=NO)c1ncn2c1[C@@H]1CCN1C(=O)c1c(Br)cccc1-2 | 265 to 266 |
| C(=C\c1nc(COc2ccc(CCCn3cncn3)cc2)co1)/c1ccccc1 | 108 to 109 |
| CC(C)N(Cc1coc(-c2ncn3c2CN(C)C(=O)c2c(Cl)cccc2-3)n1)C(C)C | 164 to 166 |
| O=S(=O)(c1cc(SC(F)(F)F)[nH]c1-c1ccc(Cl)cc1)C(F)(F)F | 118 to 122 |
| CONC(=N)c1ccc(-c2ccc(-c3ccc(C(=N)NOC)o3)cc2)cc1 | 194 to 196 |
| Cc1c(-c2ccccc2)sc2nc(N)[nH]c(=O)c12 | 356 to 358 |
| CC(=O)NC1([N+](=O)[O-])C=C(C)C=CN1 (stereo not drawn) | 146 to 149 |
| CC(C)c1cccc(C(C)C)c1NC(=S)CCC(=O)c1ccccc1 | 168 to 169 |
| OCCCC(O)c1ccccc1 (stereo not drawn) | 63 to 68 |
| CCOP(C)(=O)CC(Cc1ccccc1)NS(=O)(=O)c1ccc(C)cc1 (stereo not drawn) | 121 to 122 |
| CN1CCN(C(=O)c2ccc(-c3cnc4c(c3)N(Cc3cc(F)ccc3F)CC(C)(C)N4)cc2)CC1 | 191 to 192 |
| O=c1[nH]c2cc(Cl)cc(OCCNCc3ccsc3)c2[nH]1 | > 250 |
| CCSc1cc2c(c(C(=O)O)c1)OCCO2 | 153 to 154 |
| CC1CC(c2c(S(C)(=O)=O)ccc(C(=O)c3cnn(C)c3O)c2Cl)=NO1 (stereo not drawn) | 230 to 235 |
| O=c1[nH]c2cc(Cl)ccc2n1CCO | 176 to 178 |
| CCCCCCCCCCC1=C(O)C(=O)NC1=O | 109 to 111 |
